From PMC13170396 (Journal of controlled release : official journal of the …, 2025)

Assays:
[1] = tested on: p53-positive solid tumors; conditions: clinical; cited from earlier work
[2] = cited from earlier work
[3] = cited from earlier work; for clearance / elimination half-life t1/2 / volume of distribution: murine models
[4] = tested on: HCT116, UISO-Mel29, CCD33Co and fibroblasts; assay: Confocal imaging of cell penetration; assay type: cell-based, human; conditions: AF-p28 20 μM or AF-Arg8 5 μM, 2 h, 37 °C, confocal microscopy, Fig. 2A
[5] = tested on: HCT116 and UISO-Mel29 cells; assay: Cell proliferation assay; assay type: cell-based, human

Compound | adverse effects, toxicity, immunogenicity in humans [1] | water solubility [2] | primary route of excretion [3] | clearance [3] | elimination half-life t1/2 [3] | volume of distribution [3] | cell penetration, cancer cells compared to normal cells [4] | effect of CQ on the anti-proliferative effect of p28 ([5]; CQ 10 μM with varying concentrations of p28, 24 h, Fig. 6A, B) | cytotoxic activity in cancer cells ([5]; Fig. S4)
CSCC[C@H](NC(=O)CNC(=O)[C@H](CC(=O)O)NC(=O)[C@@H](NC(=O)[C@@H](NC(=O)[C@@H](NC(=O)CNC(=O)[C@H](CCC(N)=O)NC(=O)[C@H](CCSC)NC(=O)[C@H](CC(=O)O)NC(=O)[C@H](C)NC(=O)[C@H](C)NC(=O)[C@@H](NC(=O)[C@H](CO)NC(=O)[C@@H](N)CC(C)C)[C@@H](C)O)C(C)C)C(C)C)[C@@H](C)O)C(=O)N[C@@H](C)C(=O)N[C@@H](CO)C(=O)NCC(=O)N[C@@H](CC(C)C)C(=O)N[C@@H](CC(=O)O)C(=O)N[C@@H](CCCCN)C(=O)N[C@@H](CC(=O)O)C(=O)N[C@@H](Cc1ccc(O)cc1)C(=O)N[C@@H](CC(C)C)C(=O)N[C@@H](CCCCN)C(=O)N1CCC[C@H]1C(=O)N[C@@H](CC(=O)O)C(=O)N[C@@H](CC(=O)O)C(=O)O [p28] | no significant adverse effects, toxicity or immunogenicity | highly water soluble | renal clearance | 36.7 mL/min/kg | 0.06 h | 0.29 L/kg | – | – | –
octaarginine [Arg8] | – | – | – | – | – | – | penetrated both cancer and normal cells | – | –
CCN(CC)CCCC(C)Nc1ccnc2cc(Cl)ccc12 (stereo not shown) [CQ, chloroquine] | – | – | hepatic clearance | 165 mL/min/kg | 46.6 h | 667 L/kg | – | significantly enhanced the effect of p28 | dose-dependent cytotoxic activity
